These compounds were tested on HT-1080 cells (assay: HT-1080 cell viability assay (ferroptosis induced by RSL3, Cell Titer-Glo)). Settings: Homo sapiens, HT-1080, 20 h, ferroptosis inducer RSL3, 20 hours, ferroptosis inhibitory activity, Table 2.
Assay type: cell-based
In short: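 EC50 fitted by sigmoidal dose-response regression on luminescent viability data normalized to untreated cells. Compounds ran as a 10-point, 3-fold series from 1.1 μM alongside RSL3 for 20 hours, after overnight seeding.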

SMILES	EC50 [nM]
CCCc1ccc(NC2CCC(C)(N)CC2)cc1 (stereo not shown) [Compound 278, 1-methyl-N4-(4-propylphenyl)cyclohexane-1,4-diamine]	0.1 to 100
COC(C)(C)C1CCN(c2ccc(NC3CC4(CC(N)C4)C3)c(C)n2)CC1 (stereo not shown) [Compound 529, N2-(6-(4-(2-methoxypropan-2-yl)piperidin-1-yl)-2-methylpyridin-3-yl)spiro[3.3]-heptane-2,6-diamine]	0.1 to 100
CC(C)(C)c1ccc(NC2CCC(NCCCN)CC2)cc1 (stereo not shown) [Compound 267, 1-N-(3-aminopropyl)-4-N-(4-(tert-butyl)phenyl)cyclohexane-1,4-diamine]	1000 to 10000
CC[C@@H]1CN(c2ccc(NC3CC4(CC(N)C4)C3)c(C)n2)C[C@@H](C)O1 (stereo partly drawn) [Compound 547, N^2-(6-((2R,6R)-2-ethyl-6-methylmorpholino)-2-methylpyridin-3-yl)spiro[3.3]heptane-2,6-diamine]	0.1 to 100
NC1CCC(CNc2ccc(N3CCS(=O)(=O)CC3)cc2)CC1 (stereo not shown) [Compound 449, 4-(4-(((4-aminocyclohexyl)methyl)amino)phenyl) thiomorpholine 1,1-dioxide]	1000 to 10000
CNCC1CCC(Nc2ccc(C(C)(C)C)cc2)CC1 (stereo not shown) [Compound 87, 4-(tert-butyl)-N-(4-((methylamino)methyl)cyclohexyl)aniline]	0.1 to 100
COCCCCOc1cc(NC2CCC(N)CC2)ccc1C(C)(C)C (stereo not shown) [Compound 254, N1-(4-(tert-butyl)-3-(4-methoxybutoxy)phenyl)cyclohexane-1,4-diamine]	0.1 to 100
CC(C)(C)c1ccc(NC2CCC(N)(CN)CC2)cc1 (stereo not shown) [Compound 270, 1-(aminomethyl)-N4-(4-(tert-butyl)phenyl)cyclohexane-1,4-diamine]	100 to 1000
O=C1NC[C@H](C(=O)NC2CC(Nc3ccc(C4CCCCC4)cc3)C2)N1 (stereo partly drawn) [Compound 113, (R)—N-(3-((4-cyclohexylphenyl)amino)cyclobutyl)-2-oxoimidazolidine-4-carboxamide]	100 to 1000
CC1(C)CCC(c2ccc(NC3CCC(CO)CC3)cc2)CC1 (stereo not shown) [Compound 90]	0.1 to 100
COC1(C(F)(F)F)CCN(c2ccc(NC[C@H]3CC[C@H](N)CC3)cc2)CC1 [Compound 459, N-(((1r,4r)-4-aminocyclohexyl)methyl)-4-(4-methoxy-4-(trifluoromethyl)piperidin-1-yl)aniline]	0.1 to 100
CC(C)C1CCN(c2ccc(NC3CCC(N)CC3)nc2)CC1 (stereo not shown) [Compound 406, N1-(5-(4-isopropylpiperidin-1-yl)pyridin-2-yl)cyclohexane-1,4-diamine]	0.1 to 100
CC(C)(C)c1ccc(NC2CCCNC2)cc1 (stereo not shown) [Compound 150, N-(4-(tert-butyl)phenyl)piperidin-3-amine]	100 to 1000
Cc1nc(N2CC(C)N(CC(F)(F)F)C(C)C2)ccc1NC1CC2(CC(N)C2)C1 (stereo not shown) [Compound 493, N2-(6-(3,5-dimethyl-4-(2,2,2-trifluoroethyl)piperazin-1-yl)-2-methylpyridin-3-yl)spiro[3.3]heptane-2,6-diamine]	0.1 to 100
Cc1nc(N2CC(C)OC(C)C2)ccc1NC1CC2CC1CC2N (stereo not shown) [Compound 504, N2-(6-(2,6-dimethylmorpholino)-2-methylpyridin-3-yl)bicyclo[2.2.1]heptane-2,5-diamine]	0.1 to 100
N[C@H]1CC[C@@H](CNc2ccc3c(c2)CCC3)CC1 [Compound 307, N-(((1s,4s)-4-aminocyclohexyl)methyl)-2,3-dihydro-1H-inden-5-amine]	0.1 to 100
CC(C)(C)c1ccc(NC2CCC(NCCCCO)CC2)cc1 (stereo not shown) [Compound 321, 4-((4-((4-(tert-butyl)phenyl)amino)cyclohexyl)amino) butan-1-ol]	100 to 1000
Cc1nc(N2CC(C)OC(C)C2)ccc1NC1CC2CCC1CC2N (stereo not shown) [Compound 553, N2-(6-(2,6-dimethylmorpholino)-2-methylpyridin-3-yl)bicyclo[2.2.2]octane-2,5-diamine]	100 to 1000
CN1CC(C)(C)c2ccc(NC3CCC(N)CC3)cc21 (stereo not shown) [Compound 343, N1-(1,3,3-trimethylindolin-6-yl)cyclohexane-1,4-diamine]	0.1 to 100
C[C@H](O)[C@@H](N)C(=O)NC1CCC(Nc2ccc(C3CCC(C)(C)CC3)cc2)CC1 (stereo partly drawn) [Compound 279, (2R, 3S)-2-amino-N-(4-((4-(4,4-dimethylcyclohexyl)phenyl)amino)cyclohexyl)-3-hydroxybutanamide]	0.1 to 100
CC(N)C1CCC(Nc2ccc(C(C)(C)C)cc2)CC1 (stereo not shown) [Compound 290, N-(4-(1-aminoethyl)cyclohexyl)-4-(tert-butyl)aniline]	0.1 to 100
CC(C)(C)c1ccc(NC2CCC(N)(CO)CC2)cc1 (single isomer, unassigned) [Compound 213A, (1-amino-4-((4-(tert-butyl)phenyl)amino)cyclohexyl)methanol]	100 to 1000

The next lines start with the values.

EC50 [nM]	SMILES
0.1 to 100	CC(C)(C)c1ccc(NCC2CCC(N)C2)cc1 (stereo not shown) [Compound 328, N-((3-aminocyclopentyl)methyl)-4-(tert-butyl)aniline]
100 to 1000	CC(C)(C)c1ccc(NC2CCC(NC(=O)[C@H]3CNC(=O)N3)CC2)cc1 (single isomer, unassigned) [Compound 115A]
1000 to 10000	NC1CCC(Nc2ccc(-n3cccn3)cc2)CC1 (stereo not shown) [Compound 37A, N1-(4-(1H-pyrazol-1-yl)phenyl)cyclohexane-1,4-diamine]
0.1 to 100	NC1CC2(C1)CC(Nc1ccc(C3CCN(CC(F)(F)F)CC3)cc1)C2 (stereo not shown) [Compound 560, N2-(4-(1-(2,2,2-trifluoroethyl)piperidin-4-yl)phenyl)spiro[3.3]heptane-2,6-diamine]
1000 to 10000	CC(C)(C)c1ccc(NC2CCC(N)CC2)c(C#N)c1 (stereo not shown) [Compound 187, 2-((4-aminocyclohexyl)amino)-5-(tert-butyl)benzonitrile]
0.1 to 100	CC(C)C1CCN(c2ncc(NC3CCC(C)(N)CC3)cn2)CC1 (stereo not shown) [Compound 50, N1-(2-(4-isopropylpiperidin-1-yl)pyrimidin-5-yl)-4-methylcyclohexane-1,4-diamine]
0.1 to 100	Cc1nc(N2CC(C)(C)OC(C)(C)C2)ccc1NC[C@H]1CC[C@H](N)CC1 [Compound 514, N-(((1r,4r)-4-aminocyclohexyl)methyl)-2-methyl-6-(2,2,6,6-tetramethylmorpholino)pyridin-3-amine]
100 to 1000	c1cc(C2CCCCC2)ccc1NC1CCNC1 (stereo not shown) [Compound 108, N-(4-cyclohexylphenyl)pyrrolidin-3-amine]
100 to 1000	CC(C)(C)c1ccc(NC2CCC(N)CC2)cc1C#N (stereo not shown) [Compound 218, 5-((4-aminocyclohexyl)amino)-2-(tert-butyl)benzonitrile]
0.1 to 100	Cc1nc(N2CCC3(CCCOC3)CC2)ccc1NC1CC2(CC(N)C2)C1 (stereo not shown) [Compound 533, N2-(2-methyl-6-(2-oxa-9-azaspiro [5.5]undecan-9-yl)pyridin-3-yl)spiro[3.3]heptane-2,6-diamine]
0.1 to 100	CC1(C)CCC(c2ccc(NC3CC(CN)C3)cc2)CC1 (stereo not shown) [Compound 84, N-(3-(aminomethyl)cyclobutyl)-4-(4,4-dimethylcyclohexyl)aniline]
100 to 1000	CC(C)(C)c1ccc(N[C@@H]2C[C@H](N)C[C@H](N)C2)cc1 [Compound 345, (1s,3R,5S)-N1-(4-(tert-butyl)phenyl)cyclohexane-1,3,5-triamine]

Same assay, conditions: Homo sapiens, HT-1080, 20 h, ferroptosis inducer RSL3, 20 hours, ferroptosis inhibitory activity, Table 3

SMILES	EC50 [nM]
Cc1nc(NC(C)(C)C)ccc1NC1CC2(CC(N)C2)C1 (stereo not shown) [Compound 596, N^5-(6-aminospiro [3.3]heptan-2-yl)-N^2-(tert-butyl)-6-methylpyridine-2,5-diamine]	0.1 to 100
NC1CC2(C1)CC(Nc1ccc3nc(NCC(F)(F)F)ccc3c1)C2 (stereo not shown) [Compound 639, N^6-(6-aminospiro[3.3]heptan-2-yl)-N^2-(2,2,2-trifluoroethyl) quinoline-2,6-diamine]	0.1 to 100
CC[C@@H]1CN(c2ccc(NC3CC4CCC(C3)N4)c(C)n2)C[C@H](CC)O1 (stereo partly drawn) [Compound 657, N-(6-((2S,6R)-2,6-diethylmorpholino)-2-methylpyridin-3-yl)-8-azabicyclo[3.2.1]octan-3-amine]	0.1 to 100
Cc1nc(N2CC[Si](C)(C)CC2)ccc1NC1CC2(CC(O)C2)C1 (stereo not shown) [Compound 625, 6-((6-(4,4-dimethyl-1,4-azasilinan-1-yl)-2-methylpyridin-3-yl)amino)spiro[3.3]heptan-2-ol]	0.1 to 100
Cc1nc(N2CC(C)N(CC(F)(F)F)C(C)C2)ccc1NC1CC(N)C1 (stereo not shown) [Compound 619]	0.1 to 100
Cc1cc(N2CC(C)(C)OC(C)(C)C2)ccc1NC1CC2(CC(N)C2)C1 (stereo not shown) [Compound 628, N^2-(2-methyl-4-(2,2,6,6-tetramethylmorpholino)phenyl)spiro[3.3]heptane-2,6-diamine]	0.1 to 100

The remaining lines, values ahead:

EC50 [nM]	SMILES
0.1 to 100	Cc1nc(N2C[C@@H](C)O[C@@H](C)C2)ccc1NC1CCCC(N)CCC1 (stereo partly drawn) [Compound 631, N1-(6-((2R,6S)-2,6-dimethylmorpholino)-2-methylpyridin-3-yl)cyclooctane-1,5-diamine]
100 to 1000	CCC1CN(c2ccc(NC3C4CC5CC3CC(C(N)=O)(C5)C4)c(C)n2)CCO1 (stereo not shown) [Compound 590]

Same assay, conditions: Homo sapiens, ferroptosis inducer RSL3, 20 hours, ferroptosis inhibitory activity, Table 2

SMILES	EC50 [nM]
CC(C)(C)c1ccc(NC2CCN(S(N)(=O)=O)CC2)cc1 [Compound 180, 4-((4-(tert-butyl)phenyl)amino)piperidine-1-sulfonamide]	100 to 1000
CN1CCN(CC(=O)N2CCC(Nc3ccc(C(C)(C)C)cc3)CC2)CC1=O [Compound 222, 4-(2-{4-[(4-tert-butylphenyl)amino]piperidin-1-yl}-2-oxoethyl)-1-methylpiperazin-2-one]	1000 to 10000

Same assay, conditions: ferroptosis inducer RSL3, 20 hours, ferroptosis inhibitory activity, Table 2

EC50 [nM]	SMILES
0.1 to 100	CC1(C)CCC(c2ccc(NC3CCC(C(N)=O)CC3)cc2)CC1 (single isomer, unassigned) [Compound 159A, 4-((4-(4,4-dimethylcyclohexyl)phenyl)amino)cyclohexane-1-carboxamide]
1000 to 10000	NCC1CCC(Nc2ccccc2)CC1 (single isomer, unassigned) [Compound 92A, N-(4-(aminomethyl)cyclohexyl)aniline]
